Patent US6274715A, “Tricyclic erythromycin derivatives” (priority 1997, dated 2001)
Values after ≈ are worked out from the molar mass of the structure shown.

Assays:
Type in all cases: cell-based
[1] = tested on: STREPTOCOCCUS PYOGENES 930; test: In vitro antibacterial activity, MIC, BHI agar dilution; settings: S. pyogenes 930, unit assumed
ESCHERICHIA COLI H560 = test: as above; settings: E. coli H560, unit assumed
[2] = tested on: PSEUDOMONAS AERUGINOSA BMH10; test: as above; settings: P. aeruginosa BMH10, unit assumed
[3] = tested on: STAPHYLOCOCCUS AUREUS ATCC 6538P; test: as above; settings: S. aureus ATCC 6538P, 35-37° C., 20 to 24 hours, unit assumed
[4] = tested on: PSEUDOMONAS AERUGINOSA 5007; test: as above; settings: P. aeruginosa 5007, unit assumed
[5] = tested on: STAPHYLOCOCCUS AUREUS CMX 553; test: as above; settings: S. aureus CMX 553, unit assumed
[6] = tested on: PSEUDOMONAS AERUGINOSA K799/WT; test: as above; settings: P. aeruginosa K799/WT, unit assumed
ESCHERICHIA COLI DC-2 = test: as above; settings: E. coli DC-2, unit assumed
[7] = tested on: PSEUDOMONAS AERUGINOSA DPHD-5263; test: as above; settings: P. aeruginosa DPHD-5263, unit assumed
PSEUDOMONAS CEPACIA 296I = test: as above; settings: P. cepacia 296I, unit assumed
[8] = tested on: STAPHYLOCOCCUS AUREUS A-5278; test: as above; settings: S. aureus A-5278, unit assumed
[9] = tested on: PROVIDENCIA STUARTII CMX 640; settings: P. stuartii CMX 640; BHI agar; unit assumed
[10] = tested on: STAPHYLOCOCCUS EPIDERMIDIS 3519; settings: S. epidermidis 3519; BHI agar; unit assumed
[11] = tested on: STREPTOCOCCUS PYOGENES EES61; test: In vitro antibacterial activity, MIC, BHI agar dilution; settings: S. pyogenes EES61, unit assumed
[12] = tested on: STAPHYLOCOCCUS AUREUS CMX 642A; test: as above; settings: S. aureus CMX 642A, unit assumed
[13] = tested on: PSEUDOMONAS AERUGINOSA DPHD-2862; test: as above; settings: P. aeruginosa DPHD-2862, unit assumed
[14] = tested on: STAPHYLOCOCCUS AUREUS NCTC10649M; test: as above; settings: S. aureus NCTC10649M, unit assumed
[15] = tested on: PSEUDOMONAS AERUGINOSA K799/61; test: as above; settings: P. aeruginosa K799/61, unit assumed
ESCHERICHIA COLI KNK 437 = settings: E. coli KNK 437; BHI agar; unit assumed
CANDIDA ALBICANS CCH 442 = test: In vitro antibacterial activity, MIC, BHI agar dilution; settings: C. albicans CCH 442, unit assumed
[16] = tested on: ENTEROBACTER AEROGENES ATCC 13048; test: as above; settings: E. aerogenes ATCC 13048, unit assumed
[17] = tested on: STAPHYLOCOCCUS AUREUS 1775; test: as above; settings: S. aureus 1775, unit assumed
[18] = tested on: STAPHYLOCOCCUS AUREUS A5177; test: as above
[19] = tested on: KLEBSIELLA PNEUMONIAE ATCC 8045; test: as above; settings: K. pneumoniae ATCC 8045, unit assumed
[20] = tested on: ACINETOBACTER CALCOACETICUS CMX 669; test: as above; settings: A. calcoaceticus CMX 669, unit assumed
[21] = tested on: STREPTOCOCCUS BOVIS A-5169; test: as above; settings: S. bovis A-5169, unit assumed
[22] = tested on: STREPTOCOCCUS PYOGENES PIU 2548; test: as above; settings: S. pyogenes PIU 2548, unit assumed
STR[…] 508 = test: as above; settings: S. agalactiae CMX 508, unit assumed
Procedure, shortened: (§1)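 Twelve successive aqueous dilutions of compound in Brain Heart Infusion agar were inoculated with 1:100 culture dilutions (1:10 for slow growers such as Micrococcus, Streptococcus) by Steers replicator and incubated at 35-37° C for 20 to 24 hours. MIC was the lowest concentration giving no growth, slight haze or sparse colonies versus drug-free control.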

M[…] ATCC 9341 = test: as above; settings: M. luteus ATCC 9341, unit assumed
Procedure, shortened: as §1

M[…] ATCC 4698 = test: as above; settings: M. luteus ATCC 4698, unit assumed
Procedure, shortened: as §1

EN[…] ATCC 8043 = test: as above; settings: E. faecium ATCC 8043, unit assumed
Procedure, shortened: as §1

[23] = tested on: MYCOBACTERIUM SMEGMATIS ATCC 114; test: as above; settings: M. smegmatis ATCC 114, unit assumed
ESCHERICHIA COLI SS = test: as above; settings: E. coli SS, unit assumed

Structure (SMILES)	MIC [1]	MIC (ESCHERICHIA COLI H560)	MIC [2]	MIC [3]	MIC [4]	MIC [5]	MIC [6]	MIC (ESCHERICHIA COLI DC-2)	MIC [7]	MIC (PSEUDOMONAS CEPACIA 296I)	MIC [8]	MIC [9]	MIC [10]	MIC [11]	MIC [12]	MIC [13]	MIC [14]	MIC [15]	MIC (ESCHERICHIA COLI KNK 437)	MIC (CANDIDA ALBICANS CCH 442)	also measured
CC[C@H]1OC(=O)[C@H](C)C[C@H](C)[C@@H](O[C@@H]2O[C@H](C)C[C@H](N(C)C)[C@H]2O)[C@](C)(OC)C[C@@H](C)C2=NCCN3C(=O)O[C@@]1(C)[C@H]3[C@H]2C [Example 1]	> 100 µg/mL	50 µg/mL (≈ 80.1 µM)	> 100 µg/mL	6.2 µg/mL (≈ 9.94 µM)	> 100 µg/mL	6.2 µg/mL (≈ 9.94 µM)	> 100 µg/mL	0.78 µg/mL (≈ 1.25 µM)	50 µg/mL (≈ 80.1 µM)	12.5 µg/mL (≈ 20 µM)	> 100 µg/mL	100 µg/mL (≈ 160 µM)	12.5 µg/mL (≈ 20 µM)	0.39 µg/mL (≈ 0.625 µM)	6.2 µg/mL (≈ 9.94 µM)	> 100 µg/mL	6.2 µg/mL (≈ 9.94 µM)	> 100 µg/mL	25 µg/mL (≈ 40.1 µM)	> 100 µg/mL	MIC [16]: > 100 µg/mL; MIC [17]: > 100 µg/mL; MIC ([18]; S. aureus A5177): 6.2 µg/mL (≈ 9.94 µM); MIC [19]: > 100 µg/mL; MIC [20]: > 100 µg/mL; MIC [21]: 0.39 µg/mL (≈ 0.625 µM); MIC [22]: 0.78 µg/mL (≈ 1.25 µM); MIC (STR[…] 508): 0.39 µg/mL (≈ 0.625 µM); MIC (M[…] ATCC 9341): 0.39 µg/mL (≈ 0.625 µM); MIC (M[…] ATCC 4698): 0.39 µg/mL (≈ 0.625 µM); MIC (EN[…] ATCC 8043): 0.78 µg/mL (≈ 1.25 µM); MIC [23]: 3.1 µg/mL (≈ 4.97 µM)
CC[C@H]1OC(=O)[C@H](C)C(=O)[C@H](C)[C@@H](O[C@@H]2O[C@H](C)C[C@H](N(C)C)[C@H]2O)[C@](C)(OC)C[C@@H](C)C2=NC[C@H](Cc3ccc(OCc4ccccc4)cc3)N3C(=O)O[C@@]1(C)[C@H]3[C@H]2C [Example 64]	25 µg/mL (≈ 30 µM)	> 100 µg/mL	> 100 µg/mL	0.39 µg/mL (≈ 0.468 µM)	> 100 µg/mL	0.2 µg/mL (≈ 0.24 µM)	> 100 µg/mL	> 100 µg/mL	> 100 µg/mL	> 100 µg/mL	50 µg/mL (≈ 59.9 µM)	> 100 µg/mL	0.39 µg/mL (≈ 0.468 µM)	0.05 µg/mL (≈ 0.0599 µM)	0.39 µg/mL (≈ 0.468 µM)	> 100 µg/mL	0.2 µg/mL (≈ 0.24 µM)	12.5 µg/mL (≈ 15 µM)	> 100 µg/mL	50 µg/mL (≈ 59.9 µM)	MIC (ESCHERICHIA COLI SS): 6.2 µg/mL (≈ 7.43 µM); MIC [16]: > 100 µg/mL; MIC [17]: 50 µg/mL (≈ 59.9 µM); MIC ([18]; S. aureus A5177, unit assumed): 0.2 µg/mL (≈ 0.24 µM); MIC [19]: > 100 µg/mL; MIC [20]: > 100 µg/mL; MIC [21]: 0.1 µg/mL (≈ 0.12 µM); MIC [22]: 0.78 µg/mL (≈ 0.935 µM); MIC (STR[…] 508): 0.1 µg/mL (≈ 0.12 µM); MIC (M[…] ATCC 9341): 0.1 µg/mL (≈ 0.12 µM); MIC (M[…] ATCC 4698): 0.78 µg/mL (≈ 0.935 µM); MIC (EN[…] ATCC 8043): 0.2 µg/mL (≈ 0.24 µM); MIC [23]: 1.56 µg/mL (≈ 1.87 µM)
